In assay [1] the target is T1, BlCel5B (Bacillus licheniformis, UniProt Q65JI7).
T1 construct: gene celC; full-length trimodular enzyme (CD, Ig-like, CBM46) without signal peptide (nucleotides 1-81 removed; gene end nt 1683); E. coli Rosetta2 (DE3), pETTRXA-1a/LIC; His6 tag cut by TEV; monomer
The experiment in a line: X-ray crystal structure ([…] A) after soaking with cellopentaose. The format is binding. The note with it: crystal soaked with five times molar excess of cellopentaose for 24 h; cellotetraose from cleavage in the crystal; subsites -1 to -3 of the catalytic domain.

Assay [2] concerns the target T1, BlCel5B. The experiment in a line: MALDI/TOF-MS product profile. The format is biochemical. The following applies: 1.0 mM cellopentaose, 10 mM ammonium bicarbonate pH 7.0, 50 C, 90 min.

The results in this text go back to PMC4817029, “Molecular characterization of a family 5 glycoside hydrolase suggests an induced-fit enzymatic mechanism” (Scientific Reports, 2016).

T1 sequence (Q65JI7 entry or part of it): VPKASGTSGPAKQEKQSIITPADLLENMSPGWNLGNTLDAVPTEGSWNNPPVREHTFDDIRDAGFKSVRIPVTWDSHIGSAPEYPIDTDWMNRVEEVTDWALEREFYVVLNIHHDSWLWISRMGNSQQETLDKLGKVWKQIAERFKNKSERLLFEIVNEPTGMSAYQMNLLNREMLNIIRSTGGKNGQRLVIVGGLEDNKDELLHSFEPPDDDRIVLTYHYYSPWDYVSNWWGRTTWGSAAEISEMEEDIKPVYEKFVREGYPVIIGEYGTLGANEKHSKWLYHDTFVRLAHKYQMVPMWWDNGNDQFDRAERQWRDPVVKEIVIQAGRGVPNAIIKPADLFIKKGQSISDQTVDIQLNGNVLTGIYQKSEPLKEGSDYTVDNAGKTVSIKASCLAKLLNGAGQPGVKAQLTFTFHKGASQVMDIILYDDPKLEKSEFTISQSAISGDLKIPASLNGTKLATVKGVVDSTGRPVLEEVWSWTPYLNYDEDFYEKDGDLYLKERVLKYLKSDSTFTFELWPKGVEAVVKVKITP

For `OC[C@H]1O[C@@H](O[C@H]2[C@H](O)[C@@H](O)[C@H](O[C@H]3[C@H](O)[C@@H](O)[C@H](O[C@H]4[C@H](O)[C@@H](O)C(O)O[C@@H]4CO)O[C@@H]3CO)O[C@@H]2CO)[C@H](O)[C@@H](O)[C@@H]1O` (some centres unmarked) [C4, cellotetraose], at BlCel5B [1], the “X-ray crystal structure (1.75 A) after soaking with cellopentaose” value is “Electron density maps clearly reveal the presence of a cellotetraose (C4)”.
In the case of `OC[C@H]1O[C@@H](O[C@H]2[C@H](O)[C@@H](O)[C@H](O[C@H]3[C@H](O)[C@@H](O)[C@H](O[C@H]4[C@H](O)[C@@H](O)[C@H](O[C@H]5[C@H](O)[C@@H](O)C(O)O[C@@H]5CO)O[C@@H]4CO)O[C@@H]3CO)O[C@@H]2CO)[C@H](O)[C@@H](O)[C@@H]1O` (some centres unmarked) [C5, cellopentaose], the MALDI/TOF-MS product profile entry at BlCel5B [2] was “ability of BlCel5B to cleave C5 into glucose and C4 molecules in solution was demonstrated”.
